Source: the NIST ThermoML archive (doi:10.1021/je100237h)
Numbers after ± are expanded uncertainties.

Conditions: Liquid; for viscosity: 101.33 kPa, Concentric cylinders viscometry; for mass density: Vibrating tube method

COC(=O)CCCCC(=O)OC [dimethyl 1,6-hexanedioate]
Conditions	viscosity [mPa·s]
283.15 K	4.39 ± 0.09
288.15 K	3.82 ± 0.08
293.15 K	3.36 ± 0.07
298.15 K	2.98 ± 0.06
303.15 K	2.67 ± 0.06
308.15 K	2.4 ± 0.05
313.15 K	2.18 ± 0.05
318.15 K	1.99 ± 0.04
323.15 K	1.82 ± 0.04
328.15 K	1.68 ± 0.04
333.15 K	1.55 ± 0.03
338.15 K	1.44 ± 0.03
343.15 K	1.34 ± 0.03
348.15 K	1.25 ± 0.03
353.15 K	1.17 ± 0.03
358.15 K	1.1 ± 0.02
363.15 K	1.03 ± 0.02
368.15 K	0.97 ± 0.02
373.15 K	0.92 ± 0.02

Conditions	mass density [kg/m3]
293.15 K, 100 kPa	1061.5 ± 2.1
293.15 K, 10000 kPa	1067.7 ± 2.2
293.15 K, 20000 kPa	1073.6 ± 2.2
293.15 K, 30000 kPa	1079.2 ± 2.2
293.15 K, 40000 kPa	1084.5 ± 2.2
293.15 K, 50000 kPa	1089.6 ± 2.2
293.15 K, 60000 kPa	1094.7 ± 2.2
293.15 K, 70000 kPa	1099.5 ± 2.3
293.15 K, 80000 kPa	1104.2 ± 2.3
293.15 K, 90000 kPa	1108.5 ± 2.3
293.15 K, 100000 kPa	1112.8 ± 2.3
303.15 K, 100 kPa	1051.8 ± 2.1
303.15 K, 10000 kPa	1058 ± 2.1
303.15 K, 20000 kPa	1064.4 ± 2.2
303.15 K, 30000 kPa	1070.5 ± 2.2
303.15 K, 40000 kPa	1076 ± 2.2
303.15 K, 50000 kPa	1081.5 ± 2.2
303.15 K, 60000 kPa	1086.7 ± 2.2
303.15 K, 70000 kPa	1091.5 ± 2.2
303.15 K, 80000 kPa	1096.1 ± 2.3
303.15 K, 90000 kPa	1100.6 ± 2.3
303.15 K, 100000 kPa	1104.7 ± 2.3
303.15 K, 110000 kPa	1108.9 ± 2.4
303.15 K, 120000 kPa	1113.1 ± 2.4
303.15 K, 130000 kPa	1117 ± 2.4
303.15 K, 140000 kPa	1120.9 ± 2.5
313.15 K, 100 kPa	1042.1 ± 2.1
313.15 K, 10000 kPa	1048.9 ± 2.1
313.15 K, 20000 kPa	1055.6 ± 2.1
313.15 K, 30000 kPa	1061.8 ± 2.1
313.15 K, 40000 kPa	1067.5 ± 2.2
313.15 K, 50000 kPa	1073.2 ± 2.2
313.15 K, 60000 kPa	1078.6 ± 2.2
313.15 K, 70000 kPa	1083.7 ± 2.2
313.15 K, 80000 kPa	1088.7 ± 2.2
313.15 K, 90000 kPa	1093.2 ± 2.3
313.15 K, 100000 kPa	1097.2 ± 2.3
313.15 K, 110000 kPa	1101.5 ± 2.3
313.15 K, 120000 kPa	1105.6 ± 2.4
313.15 K, 130000 kPa	1109.8 ± 2.4
313.15 K, 140000 kPa	1113.8 ± 2.4
323.15 K, 100 kPa	1031.6 ± 2.1
323.15 K, 10000 kPa	1038.9 ± 2.1
323.15 K, 20000 kPa	1045.7 ± 2.1
323.15 K, 30000 kPa	1052.1 ± 2.1
323.15 K, 40000 kPa	1058.3 ± 2.1
323.15 K, 50000 kPa	1063.9 ± 2.2
323.15 K, 60000 kPa	1069.1 ± 2.2
323.15 K, 70000 kPa	1074.4 ± 2.2
323.15 K, 80000 kPa	1079.3 ± 2.2
323.15 K, 90000 kPa	1084.2 ± 2.2
323.15 K, 100000 kPa	1088.9 ± 2.3
323.15 K, 110000 kPa	1093.3 ± 2.3
323.15 K, 120000 kPa	1097.9 ± 2.3
323.15 K, 130000 kPa	1102.2 ± 2.4
323.15 K, 140000 kPa	1106.2 ± 2.4
333.15 K, 100 kPa	1022.6 ± 2.1
333.15 K, 10000 kPa	1029.6 ± 2.1
333.15 K, 20000 kPa	1036.8 ± 2.1
333.15 K, 30000 kPa	1043.6 ± 2.1
333.15 K, 40000 kPa	1049.9 ± 2.1
333.15 K, 50000 kPa	1056 ± 2.1
333.15 K, 60000 kPa	1061.5 ± 2.2
333.15 K, 70000 kPa	1066.9 ± 2.2
333.15 K, 80000 kPa	1072 ± 2.2
333.15 K, 90000 kPa	1076.9 ± 2.2
333.15 K, 100000 kPa	1082 ± 2.3
333.15 K, 110000 kPa	1086.8 ± 2.3
333.15 K, 120000 kPa	1091.1 ± 2.3
333.15 K, 130000 kPa	1095.5 ± 2.4
333.15 K, 140000 kPa	1099.8 ± 2.4
343.15 K, 100 kPa	1012.3 ± 2
343.15 K, 10000 kPa	1020.4 ± 2.1
343.15 K, 20000 kPa	1028.1 ± 2.1
343.15 K, 30000 kPa	1034.8 ± 2.1
343.15 K, 40000 kPa	1041.3 ± 2.1
343.15 K, 50000 kPa	1047.6 ± 2.1
343.15 K, 60000 kPa	1053.5 ± 2.1
343.15 K, 70000 kPa	1058.6 ± 2.2
343.15 K, 80000 kPa	1064.2 ± 2.2
343.15 K, 90000 kPa	1069.3 ± 2.2
343.15 K, 100000 kPa	1074.1 ± 2.2
343.15 K, 110000 kPa	1079 ± 2.3
343.15 K, 120000 kPa	1083.9 ± 2.3
343.15 K, 130000 kPa	1088.3 ± 2.3
343.15 K, 140000 kPa	1092.4 ± 2.4
353.15 K, 100 kPa	1002.2 ± 2
353.15 K, 10000 kPa	1010.8 ± 2
353.15 K, 20000 kPa	1018.4 ± 2.1
353.15 K, 30000 kPa	1025.6 ± 2.1
353.15 K, 40000 kPa	1032.8 ± 2.1
353.15 K, 50000 kPa	1039 ± 2.1
353.15 K, 60000 kPa	1045.4 ± 2.1
353.15 K, 70000 kPa	1051.2 ± 2.1
353.15 K, 80000 kPa	1056.7 ± 2.2
353.15 K, 90000 kPa	1061.9 ± 2.2
353.15 K, 100000 kPa	1067.3 ± 2.2
353.15 K, 110000 kPa	1072.2 ± 2.2
353.15 K, 120000 kPa	1076.6 ± 2.3
353.15 K, 130000 kPa	1081.3 ± 2.3
353.15 K, 140000 kPa	1085.6 ± 2.3
363.15 K, 100 kPa	992.2 ± 2
363.15 K, 10000 kPa	1000.6 ± 2
363.15 K, 20000 kPa	1008.9 ± 2
363.15 K, 30000 kPa	1016.6 ± 2
363.15 K, 40000 kPa	1023.7 ± 2.1
363.15 K, 50000 kPa	1030.4 ± 2.1
363.15 K, 60000 kPa	1036.8 ± 2.1
363.15 K, 70000 kPa	1042.9 ± 2.1
363.15 K, 80000 kPa	1048.5 ± 2.1
363.15 K, 90000 kPa	1053.9 ± 2.2
363.15 K, 100000 kPa	1059.2 ± 2.2
363.15 K, 110000 kPa	1064.3 ± 2.2
363.15 K, 120000 kPa	1069.1 ± 2.3
363.15 K, 130000 kPa	1074.1 ± 2.3
363.15 K, 140000 kPa	1078.5 ± 2.3
373.15 K, 100 kPa	981.9 ± 2
373.15 K, 10000 kPa	991 ± 2
373.15 K, 20000 kPa	999.5 ± 2
373.15 K, 30000 kPa	1007.7 ± 2
373.15 K, 40000 kPa	1014.8 ± 2
373.15 K, 50000 kPa	1021.8 ± 2.1
373.15 K, 60000 kPa	1029 ± 2.1
373.15 K, 70000 kPa	1035 ± 2.1
373.15 K, 80000 kPa	1040.9 ± 2.1
373.15 K, 90000 kPa	1046.4 ± 2.1
373.15 K, 100000 kPa	1051 ± 2.2
373.15 K, 110000 kPa	1056.3 ± 2.2
373.15 K, 120000 kPa	1061.6 ± 2.2
373.15 K, 130000 kPa	1066 ± 2.3
373.15 K, 140000 kPa	1071.2 ± 2.3
383.15 K, 100 kPa	972.2 ± 2
383.15 K, 10000 kPa	981.1 ± 2
383.15 K, 20000 kPa	990.4 ± 2
383.15 K, 30000 kPa	998.7 ± 2
383.15 K, 40000 kPa	1006.3 ± 2
383.15 K, 50000 kPa	1013.9 ± 2
383.15 K, 60000 kPa	1020.5 ± 2.1
383.15 K, 70000 kPa	1027 ± 2.1
383.15 K, 80000 kPa	1033.2 ± 2.1
383.15 K, 90000 kPa	1039 ± 2.1
383.15 K, 100000 kPa	1044.7 ± 2.2
383.15 K, 110000 kPa	1050.1 ± 2.2
383.15 K, 120000 kPa	1055.2 ± 2.2
383.15 K, 130000 kPa	1059.9 ± 2.2
383.15 K, 140000 kPa	1065.1 ± 2.3
393.15 K, 100 kPa	961.7 ± 1.9
393.15 K, 10000 kPa	971.7 ± 2
393.15 K, 20000 kPa	981.5 ± 2
393.15 K, 30000 kPa	990.1 ± 2
393.15 K, 40000 kPa	998.2 ± 2
393.15 K, 50000 kPa	1005.9 ± 2
393.15 K, 60000 kPa	1013 ± 2
393.15 K, 70000 kPa	1019.7 ± 2.1
393.15 K, 80000 kPa	1026 ± 2.1
393.15 K, 90000 kPa	1032.1 ± 2.1
393.15 K, 100000 kPa	1037.7 ± 2.1
393.15 K, 110000 kPa	1043.1 ± 2.2
393.15 K, 120000 kPa	1048.7 ± 2.2
393.15 K, 130000 kPa	1053.8 ± 2.2
393.15 K, 140000 kPa	1058.5 ± 2.3
403.15 K, 100 kPa	951.5 ± 1.9
403.15 K, 10000 kPa	961.4 ± 1.9
403.15 K, 20000 kPa	971.6 ± 2
403.15 K, 30000 kPa	980.8 ± 2
403.15 K, 40000 kPa	989.3 ± 2
403.15 K, 50000 kPa	997.3 ± 2
403.15 K, 60000 kPa	1004.5 ± 2
403.15 K, 70000 kPa	1011.5 ± 2.1
403.15 K, 80000 kPa	1018.2 ± 2.1
403.15 K, 90000 kPa	1024.5 ± 2.1
403.15 K, 100000 kPa	1030.2 ± 2.1
403.15 K, 110000 kPa	1035.9 ± 2.2
403.15 K, 120000 kPa	1041.3 ± 2.2
403.15 K, 130000 kPa	1046.6 ± 2.2
403.15 K, 140000 kPa	1051.6 ± 2.3
